Measured values published in ChEMBL document CHEMBL4811319, “Optimization of 1,4-bis(arylsulfonamido)naphthalene-N,N'-diacetic acids as inhibitors of Keap1-Nrf2 protein-protein interaction to suppress neuroinflammation” (Bioorg Med Chem, 2021).
Each block holds one molecule with its values, some of them ahead of it. Activity calls are given as the source filed them. The calls are words filed in the database; no cut-off is given here.

How the values were obtained:
[1] = biological target: T1, Nuclear factor erythroid 2-related factor 2 (Mus musculus) (UniProt Q60795); test: Activation of Nrf2 in mouse BV-2 cells assessed as increase in NQO-1 mRNA level at 10 uM measured after 6 hrs by qRT-PCR analysis relative to control; type: cell-based; settings: filed as activator
T1 sequence (whole entry): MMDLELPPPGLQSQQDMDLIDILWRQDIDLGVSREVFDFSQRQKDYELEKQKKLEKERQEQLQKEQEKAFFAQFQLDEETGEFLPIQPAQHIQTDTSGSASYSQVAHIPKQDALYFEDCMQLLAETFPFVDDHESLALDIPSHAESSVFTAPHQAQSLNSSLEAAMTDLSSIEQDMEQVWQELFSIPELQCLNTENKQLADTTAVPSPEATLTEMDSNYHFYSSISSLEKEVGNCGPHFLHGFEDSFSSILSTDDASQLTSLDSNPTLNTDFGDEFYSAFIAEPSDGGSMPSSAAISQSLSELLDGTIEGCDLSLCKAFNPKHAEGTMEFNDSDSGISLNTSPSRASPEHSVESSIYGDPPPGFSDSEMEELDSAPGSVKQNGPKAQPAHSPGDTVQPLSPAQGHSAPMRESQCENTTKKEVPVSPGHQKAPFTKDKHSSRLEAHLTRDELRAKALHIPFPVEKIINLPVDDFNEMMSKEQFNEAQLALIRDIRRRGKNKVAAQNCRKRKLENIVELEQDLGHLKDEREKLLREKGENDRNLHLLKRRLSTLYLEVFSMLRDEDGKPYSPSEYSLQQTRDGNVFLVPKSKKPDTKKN

HepG2 = test: Cytotoxicity against human HepG2 cells up to 50 uM by Alamar blue assay; type: cell-based
Keap1/Nrf2 [2] = biological target: T2, Keap1/Nrf2 (Homo sapiens, UniProt Q14145); test: Inhibition of recombinant human KEAP1 Kelch domain (321 to 609 residues) expressed in Escherichia coli BL21 (DE3)pLysS cells interaction with FITC-9mer Nrf2 (unknown origin) incubated for 30 mins under shaking condition by fluorescence polarization assay
T2 sequence (Q16236 whole entry, the tested form may be a part): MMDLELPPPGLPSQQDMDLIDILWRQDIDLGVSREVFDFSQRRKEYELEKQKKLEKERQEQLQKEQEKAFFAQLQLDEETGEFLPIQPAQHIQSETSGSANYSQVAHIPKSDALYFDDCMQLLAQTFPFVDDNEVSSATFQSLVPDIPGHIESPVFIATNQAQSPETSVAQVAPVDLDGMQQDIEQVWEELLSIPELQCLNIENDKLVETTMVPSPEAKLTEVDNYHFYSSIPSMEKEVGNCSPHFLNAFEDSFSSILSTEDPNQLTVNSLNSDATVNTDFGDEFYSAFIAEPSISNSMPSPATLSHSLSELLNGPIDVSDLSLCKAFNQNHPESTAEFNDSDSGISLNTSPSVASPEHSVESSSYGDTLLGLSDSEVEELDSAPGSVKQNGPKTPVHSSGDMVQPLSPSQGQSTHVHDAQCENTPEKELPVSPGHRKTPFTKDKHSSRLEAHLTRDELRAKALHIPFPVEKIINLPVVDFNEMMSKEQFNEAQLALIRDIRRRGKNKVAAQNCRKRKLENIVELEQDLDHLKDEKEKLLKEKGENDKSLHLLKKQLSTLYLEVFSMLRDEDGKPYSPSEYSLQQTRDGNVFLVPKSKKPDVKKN
T2 sequence (Q14145 whole entry, the tested form may be a part): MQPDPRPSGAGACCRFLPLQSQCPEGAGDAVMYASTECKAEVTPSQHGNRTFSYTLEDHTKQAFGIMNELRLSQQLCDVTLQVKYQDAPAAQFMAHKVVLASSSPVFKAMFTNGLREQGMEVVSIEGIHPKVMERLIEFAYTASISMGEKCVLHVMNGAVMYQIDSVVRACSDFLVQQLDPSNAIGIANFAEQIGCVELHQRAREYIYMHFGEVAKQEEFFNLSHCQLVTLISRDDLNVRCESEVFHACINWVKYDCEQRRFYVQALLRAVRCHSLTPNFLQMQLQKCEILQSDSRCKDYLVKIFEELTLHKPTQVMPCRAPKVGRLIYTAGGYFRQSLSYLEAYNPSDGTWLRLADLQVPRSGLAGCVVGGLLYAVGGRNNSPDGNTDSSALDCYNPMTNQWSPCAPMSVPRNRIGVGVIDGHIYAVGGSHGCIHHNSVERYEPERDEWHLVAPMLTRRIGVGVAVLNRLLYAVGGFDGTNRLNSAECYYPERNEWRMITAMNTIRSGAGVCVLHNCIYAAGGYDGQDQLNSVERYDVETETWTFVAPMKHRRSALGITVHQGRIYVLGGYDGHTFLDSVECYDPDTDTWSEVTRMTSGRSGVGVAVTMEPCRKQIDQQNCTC

BV-2 [3] = test: Cytotoxicity against mouse BV-2 cells up to 50 uM by Alamar blue assay; type: cell-based
[4] = biological target: T1, Nuclear factor erythroid 2-related factor 2 (Mus musculus); test: Activation of Nrf2 in mouse BV-2 cells assessed as increase in HO-1 mRNA level at 10 uM measured within 6 hrs by qRT-PCR analysis relative to negative control; type: cell-based; settings: time hrs <6
BV-2 [5] = test: Antiinflammatory activity in mouse BV-2 cells assessed as suppression of LPS-induced […] mRNA expression at 10 uM measured up to 24 hrs by qRT-PCR analysis; type: functional, cell-based
[6] = biological target: T1, Nuclear factor erythroid 2-related factor 2 (Mus musculus); test: Activation of Nrf2 in mouse BV-2 cells assessed as increase in translocation of Nrf2 into nucleus at 10 uM measured after 6 to 24 hrs by […]; type: cell-based; settings: filed as activator, time 6-24 hrs
BV-2 [7] = test: Antiinflammatory activity in mouse BV-2 cells assessed as suppression of LPS-induced IL-6 mRNA expression at 10 uM measured up to 24 hrs by qRT-PCR analysis; type: functional, cell-based
[8] = biological target: T1, Nuclear factor erythroid 2-related factor 2 (Mus musculus); test: Activation of Nrf2 in mouse BV-2 cells assessed as increase in NQO-1 mRNA level measured after 6 to 24 hrs by qRT-PCR analysis; type: cell-based; settings: filed as activator, dose 1-10 µM, time 6-24 hrs
[9] = biological target: T1, Nuclear factor erythroid 2-related factor 2 (Mus musculus); test: Activation of Nrf2 in mouse BV-2 cells assessed as increase in NQO-1 mRNA level at 10 uM measured after 24 hrs by qRT-PCR analysis relative to control; type: cell-based; settings: filed as activator
[10] = biological target: T1, Nuclear factor erythroid 2-related factor 2 (Mus musculus); test: Activation of Nrf2 in mouse BV-2 cells assessed as upregulation of HO-1 protein expression measured after 24 hrs by Western blot analysis; type: cell-based; settings: filed as activator
BV-2 [11] = test: Antiinflammatory activity in mouse BV-2 cells assessed as suppression of LPS-induced TNF-alpha mRNA expression at 10 uM measured up to 24 hrs by qRT-PCR analysis; type: functional, cell-based
[12] = biological target: T1, Nuclear factor erythroid 2-related factor 2 (Mus musculus); test: Activation of Nrf2 in mouse BV-2 cells assessed as increase in DNA binding activity at 10 uM measured after 24 hrs by spectrophotometric analysis relative to control; type: cell-based; settings: filed as activator
BV-2 [13] = test: Upregulation of HO-1 in mouse BV-2 cells transfected with Nrf2 shRNA at 10 uM measured after 24 hrs by qPCR analysis; type: functional, cell-based
[14] = biological target: Keap1/Nrf2 (Homo sapiens) (UniProt Q16236+Q14145); test: Inhibition of Keap1-Nrf2 protein-protein interaction in human HepG2-ARE-C8 cells assessed as Nrf2 activation mediated ARE-driven luciferase activity by measuring fold change at 10 uM measured after 24 hrs by luciferase reporter gene assay; type: cell-based
Sequence of Keap1/Nrf2 (Homo sapiens) (Q14145 whole entry, looked up): as the sequence (Q14145 whole entry, the tested form may be a part) above
Sequence of Keap1/Nrf2 (Homo sapiens) (Q16236 whole entry, looked up): as the sequence (Q16236 whole entry, the tested form may be a part) above

BV-2 [15] = test: Antiinflammatory activity in mouse BV-2 cells assessed as suppression of LPS-induced […] protein expression at 10 uM measured up to 24 hrs by ELISA; type: functional, cell-based
Keap1/Nrf2 [16] = biological target: T2, Keap1/Nrf2; test: Inhibition of recombinant human KEAP1 Kelch domain (321 to 609 residues) expressed in Escherichia coli BL21 (DE3)pLysS cells interaction with FITC-9mer Nrf2 (unknown origin) incubated for 30 mins under shaking condition by TR-FRET assay
[17] = biological target: T1, Nuclear factor erythroid 2-related factor 2 (Mus musculus); test: Activation of Nrf2 in mouse BV-2 cells assessed as upregulation of HO-1 protein expression at 10 uM measured after 24 hrs by Western blot analysis relative to control; type: cell-based; settings: filed as activator
[18] = biological target: T1, Nuclear factor erythroid 2-related factor 2 (Mus musculus); test: Activation of Nrf2 in mouse BV-2 cells assessed as increase in NQO-1 mRNA level at 1 to 10 uM by qRT-PCR analysis; type: cell-based; settings: filed as activator, dose 1-10 µM, time 6-24 hrs
BV-2 [19] = test: Antiinflammatory activity in mouse BV-2 cells assessed as suppression of LPS-induced IL-6 protein expression at 10 uM measured up to 24 hrs by ELISA; type: functional, cell-based
[20] = biological target: T1, Nuclear factor erythroid 2-related factor 2 (Mus musculus); test: Activation of Nrf2 in mouse BV-2 cells assessed as increase in HO-1 mRNA level at 1 to 10 uM measured up to 24 hrs by qRT-PCR analysis relative to control; type: cell-based
[21] = biological target: T1, Nuclear factor erythroid 2-related factor 2 (Mus musculus); test: Activation of Nrf2 in mouse BV-2 cells assessed as increase in DNA binding activity at 10 uM measured after 6 hrs by spectrophotometric analysis relative to control; type: cell-based; settings: filed as activator
BV-2 [22] = test: Upregulation of NQO-1 in mouse BV-2 cells transfected with Nrf2 shRNA at 10 uM measured after 24 hrs by qPCR analysis; type: functional, cell-based
BV-2 [23] = test: Antiinflammatory activity in mouse BV-2 cells assessed as suppression of LPS-induced TNF-alpha protein expression at 10 uM measured up to 24 hrs by ELISA; type: functional, cell-based
[24] = biological target: T1, Nuclear factor erythroid 2-related factor 2 (Mus musculus); test: Activation of Nrf2 in mouse BV-2 cells assessed as upregulation of NQO-1 protein expression at 10 uM measured after 24 hrs by Western blot analysis relative to control; type: cell-based; settings: filed as activator
[25] = biological target: T1, Nuclear factor erythroid 2-related factor 2 (Mus musculus); test: Activation of Nrf2 in mouse BV-2 cells assessed as upregulation of NQO-1 protein expression measured after 24 hrs by Western blot analysis; type: cell-based; settings: filed as activator
[26] = biological target: T1, Nuclear factor erythroid 2-related factor 2 (Mus musculus); test: Activation of Nrf2 in mouse BV-2 cells assessed as increase in HO-1 mRNA level at 10 uM measured after 24 hrs by qRT-PCR analysis relative to control; type: cell-based; settings: filed as activator
[27] = biological target: T1, Nuclear factor erythroid 2-related factor 2 (Mus musculus); test: Activation of Nrf2 in mouse BV-2 cells assessed as upregulation of HO-1 protein expression at 20 uM measured after 24 hrs by Western blot analysis; type: cell-based; settings: filed as activator
[28] = biological target: T1, Nuclear factor erythroid 2-related factor 2 (Mus musculus); test: Activation of Nrf2 in mouse BV-2 cells assessed as upregulation of NQO-1 protein expression at 20 uM measured after 24 hrs by Western blot analysis; type: cell-based; settings: filed as activator

fold change (FC) [1]: 4
IC50 (Keap1/Nrf2 [2]): 146 nM
fold change (FC) [4]: < 2
SMILES: O=C(O)CN(c1ccc(N(CC(=O)O)S(=O)(=O)c2ccc3c(c2)CCCO3)c2ccccc12)S(=O)(=O)c1ccc2c(c1)CCCO2
Activity (HepG2): Non-Toxic
Activity (BV-2 [3]): Non-Toxic

IC50 (Keap1/Nrf2 [2]): 384 nM
SMILES: O=C(O)CN(c1ccc(N(CC(=O)O)S(=O)(=O)c2ccc(C(F)(F)F)cc2)c2ccccc12)S(=O)(=O)c1ccc(C(F)(F)F)cc1

IC50 (Keap1/Nrf2 [2]): 194 nM
SMILES: CS(=O)(=O)Nc1ccc(S(=O)(=O)N(CC(=O)O)c2ccc(N(CC(=O)O)S(=O)(=O)c3ccc(NS(C)(=O)=O)cc3)c3ccccc23)cc1

IC50 (Keap1/Nrf2 [2]): 184 nM
SMILES: COc1ccc(S(=O)(=O)N(CC(=O)O)c2ccc(N(CC(=O)O)S(=O)(=O)c3ccc(OC)cc3Br)c3ccccc23)c(Br)c1

Activity [6]: Active
Activity [8]: Dose-Dependent Effect
fold change (FC) [9]: 18
Activity [10]: Dose-Dependent Effect
fold change (FC) [1]: 3
fold change (FC) [12]: 3
fold change (FC) [14]: > 2
IC50 (Keap1/Nrf2 [16]): 8.9 nM
fold change (FC) [17]: 2
Activity [18]: Tde
IC50 (Keap1/Nrf2 [2]): 144 nM
fold change (FC) [20]: < 2
fold change (FC) [21]: 3
fold change (FC) [24]: 3
fold change (FC) [4]: < 2
Activity [25]: Dose-Dependent Effect
SMILES: O=C(O)CN(c1ccc(N(CC(=O)O)S(=O)(=O)c2cc3c(cc2Cl)OCCO3)c2ccccc12)S(=O)(=O)c1cc2c(cc1Cl)OCCO2
Activity (BV-2 [5]): Active
Activity (BV-2 [7]): Active
Activity (BV-2 [11]): Active
Activity (BV-2 [13]): inactive
Activity (BV-2 [15]): Active
Activity (HepG2): Non-Toxic
Activity (BV-2 [19]): Active
Activity (BV-2 [3]): Non-Toxic
Activity (BV-2 [22]): inactive
Activity (BV-2 [23]): Active

fold change (FC) [26]: 4
IC50 (Keap1/Nrf2 [2]): 164 nM
fold change (FC) [4]: < 2
SMILES: O=C(O)CN(c1ccc(N(CC(=O)O)S(=O)(=O)c2ccc3c(c2)CCO3)c2ccccc12)S(=O)(=O)c1ccc2c(c1)CCO2
Activity (HepG2): Non-Toxic
Activity (BV-2 [3]): Non-Toxic

IC50 (Keap1/Nrf2 [16]): 31.3 nM
IC50 (Keap1/Nrf2 [2]): 120 nM
fold change (FC) [4]: < 2
SMILES: O=C(O)CN(c1ccc(N(CC(=O)O)S(=O)(=O)c2ccc3c(c2)OCCO3)c2ccccc12)S(=O)(=O)c1ccc2c(c1)OCCO2
Activity (HepG2): Non-Toxic
Activity (BV-2 [3]): Non-Toxic

IC50 (Keap1/Nrf2 [2]): 235 nM
SMILES: O=C(O)CN(c1ccc(N(CC(=O)O)S(=O)(=O)c2ccc(Br)cc2)c2ccccc12)S(=O)(=O)c1ccc(Br)cc1

IC50 (Keap1/Nrf2 [2]): 302 nM
SMILES: O=S(=O)(c1ccc(C(F)(F)F)cc1)N(Cc1nnn[nH]1)c1ccc(N(Cc2nnn[nH]2)S(=O)(=O)c2ccc(C(F)(F)F)cc2)c2ccccc12

IC50 (Keap1/Nrf2 [16]): 11.5 nM
IC50 (Keap1/Nrf2 [2]): 82 nM
SMILES: O=C(O)CN(c1ccc(N(CC(=O)O)S(=O)(=O)c2ccc(N3C(=O)c4ccccc4C3=O)cc2)c2ccccc12)S(=O)(=O)c1ccc(N2C(=O)c3ccccc3C2=O)cc1

fold change (FC) [14]: > 2
IC50 (Keap1/Nrf2 [2]): 149 nM
fold change (FC) [4]: < 2
SMILES: O=C(O)CN(c1ccc(N(CC(=O)O)S(=O)(=O)c2ccc3c(c2)OCO3)c2ccccc12)S(=O)(=O)c1ccc2c(c1)OCO2
Activity (HepG2): Non-Toxic
Activity (BV-2 [3]): Non-Toxic

IC50 (Keap1/Nrf2 [16]): 10.8 nM
IC50 (Keap1/Nrf2 [2]): 96.7 nM
SMILES: COc1ccc(S(=O)(=O)N(Cc2nnn[nH]2)c2ccc(N(Cc3nnn[nH]3)S(=O)(=O)c3ccc(OC)cc3)c3ccccc23)cc1

SMILES: CN(C)C=O
Activity [27]: Active
Activity [28]: Active

IC50 (Keap1/Nrf2 [16]): 7.2 nM
IC50 (Keap1/Nrf2 [2]): 93.5 nM
fold change (FC) [4]: < 2
SMILES: O=S(=O)(c1ccc2c(c1)OCCO2)N(Cc1nnn[nH]1)c1ccc(N(Cc2nnn[nH]2)S(=O)(=O)c2ccc3c(c2)OCCO3)c2ccccc12
Activity (HepG2): Non-Toxic
Activity (BV-2 [3]): Non-Toxic

IC50 (Keap1/Nrf2 [2]): 126 nM
SMILES: O=C(O)CN(c1ccc(N(CC(=O)O)S(=O)(=O)c2ccc(NC(=O)C(F)(F)F)cc2)c2ccccc12)S(=O)(=O)c1ccc(NC(=O)C(F)(F)F)cc1
